Experimental data reported in ChEMBL document CHEMBL3627620, “Design, synthesis, and biological evaluation of aminopyrazine derivatives as inhibitors of mitogen-activated protein kinase-activated protein kinase 2 (MK-2)” (Bioorg Med Chem Lett, 2015).

Legend:
[1] = Antiinflammatory activity in human THP1 cells assessed as inhibition of LPS-stimulated TNFalpha production at 50 uM; type: functional; details: THP-1
[2] = Antiinflammatory activity in human THP1 cells assessed as inhibition of LPS-stimulated TNFalpha production; details: THP-1
[3] = biological target: MAP kinase-activated protein kinase 2 (Homo sapiens) (UniProt P49137); test: Inhibition of MK2 (unknown origin) at 50 uM by scintillation proximity assay
Chain of MAP kinase-activated protein kinase 2 (Homo sapiens) (P49137 whole entry, looked up): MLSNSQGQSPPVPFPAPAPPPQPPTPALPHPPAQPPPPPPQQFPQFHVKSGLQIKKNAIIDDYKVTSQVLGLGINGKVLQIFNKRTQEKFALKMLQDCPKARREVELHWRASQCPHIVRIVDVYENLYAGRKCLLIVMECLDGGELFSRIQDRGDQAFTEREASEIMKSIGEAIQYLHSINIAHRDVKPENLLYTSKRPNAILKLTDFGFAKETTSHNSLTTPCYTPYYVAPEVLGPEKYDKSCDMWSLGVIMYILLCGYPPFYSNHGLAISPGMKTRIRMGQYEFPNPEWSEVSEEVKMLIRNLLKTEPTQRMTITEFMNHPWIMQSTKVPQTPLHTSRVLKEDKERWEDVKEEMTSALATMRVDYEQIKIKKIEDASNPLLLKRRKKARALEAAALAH

[4] = Antiinflammatory activity in human THP1 cells assessed as inhibition of LPS-stimulated TNFalpha production at […] uM; type: functional; details: THP-1
[5] = Ratio of IC50 for human THP1 cells assessed as inhibition of LPS-stimulated TNFalpha production to IC50 for MK2 (unknown origin); parameters: species or system THP-1

Compound `CO/N=C(\NCc1nc(Cl)cnc1N)Nc1ccc(NC(=O)OC(C)(C)C)cc1` has an inhibition at 50 µM [1] of 40% and an IC50 [2] greater than 50 µM.

Work on `Nc1ncc(Cl)nc1CNc1nc2ccccc2s1` yielded an inhibition [3] of 36%.

With `CCOC(=O)/N=C(\NCc1nc(C2CC2)cnc1N)Nc1ccc2[nH]c(=O)oc2c1` the IC50 [2] was 13 µM.

`Nc1ncc(Cl)nc1-c1nc(N2CCc3ccccc32)no1` gave an inhibition [3] of 20%.

Work on `Cc1ccc(C(=O)/N=C(\NCc2nc(C3CC3)cnc2N)Nc2ccc3[nH]c(=O)oc3c2)cc1` yielded an IC50 [2] of 3.9 µM.

For `Nc1ncc(C2CC2)nc1CNC(=O)Nc1ccc2[nH]c(=O)oc2c1`, the inhibition at 12.5 µM [4] was 45% and the IC50 [2] was greater than 12.5 µM.

Work on `CC(C)(C)OC(=O)Nc1ccc(N/C(=N/C#N)NCc2nc(C3CC3)cnc2N)cc1` yielded an IC50 [2] of 10.2 µM.

In the case of `Nc1ncc(C2CC2)nc1CN/C(=N\C(=O)c1ccc(Cl)cc1)Nc1ccc2[nH]c(=O)oc2c1`, the IC50 [2] is reported as 8.8 µM.

With `CCCc1cnc(N)c(CN/C(=N\C#N)Nc2ccc3[nH]c(=O)oc3c2)n1` the IC50 [2] was 42 µM.

With `Nc1ncc(Cl)nc1CNC(=S)Nc1ccccc1` the “Ratio IC50” value [5] was 4 and the IC50 [2] was 7.9 µM.

`CCCc1cnc(N)c(CNC(=O)Nc2ccc3[nH]c(=O)oc3c2)n1` gave an inhibition at 12.5 µM [4] of 34% and an IC50 [2] greater than 12.5 µM.
